Assays:
[1] = biological target: PKCα (Homo sapiens, UniProt P17252); parameters: key: +—activation; ++—strong activation; conditions: cPKCs, gene PRKCA; cited from earlier work
[2] = biological target: PKCδ (Homo sapiens, UniProt Q05655); parameters: key: +—activation; ++—strong activation; conditions: nPKCs, gene PRKCD; cited from earlier work
[3] = system: patient-derived S24 glioblastoma model; assay: Example 4: orthotopic S24 glioblastoma in mouse brain, TPPB and radiotherapy, in vivo MPLSM imaging; parameters: species or system NMRI nude mice; conditions: for tumour burden / tumour connectivity: TPPB 3 doses i.p. days 13, 14, 15 at 200 μg/kg
Excerpt: 8-10 weeks old male NMRI nude mice were used for all studies with human primary brain tumour cells. Cranial window implantation in mice was done in a modification of what has been previously described (see References), including a custom-made titanium ring for painless head fixation during imaging. 2-3 weeks after cranial window implantation, 30,000 tumour cells of the patient-derived S24 glioblastoma model were stereotactically injected into the mouse brain at a depth of 500 μm. Tumours were injected on day minus 35, i.e., 35 days before treatment start. Treatment was started on day 0.
Control animals (top row of FIG. 3) were untreated. TPPB continuous treatment (middle row) was administered intraperitoneally once per day on days 0 to 28 at variable daily doses ranging from 10 to 700 μg/kg. TPPB 3 doses (bottom row of FIG. 3) were administered intraperitoneally once per day on days 13, 14 and 15 at 200 μg/kg.
Tumours were irradiated with 7 Gy on three consecutive days (days 14, 15, 16, total dose 21 Gy) in regions matching in tumour cell density using a 6 MV linear accelerator with a 6 mm collimator (adjusted to the window size) at a dose rate of 3 Gy min^−1 (Faxitron MultiRad225). The used radiation schedule is in the range of the commonly prescribed 60 Gy in 2 Gy. fractions for malignant glioma patients, assuming an α/β of ˜10 in the linear quadratic model and taking into account the radiation time of 3 days.
MPLSM imaging was done with a Zeiss 7MP microscope (Zeiss) equipped with a Coherent Chameleon Ultrall laser (Coherent). MPLSM images were acquired by the ZEISS ZEN Software.
White to light gray areas of images in FIG. 3 depict S24 glioblastoma cells growing in the mouse brain. Black or dark gray areas depict vessels or background.

[4] = system: Hs578 cell line for human breast cancer, U373 cell line of human glioblastoma, and HepG2 hepatocellular carcinoma cells; assay: SMS assay (small molecule sharing), cell dye-sharing between cancer cells, cell lines pooled; format: cell-based; conditions: various doses that are not cytotoxic, in one or more cell lines
Excerpt: (§1) The SMS assay was developed to assess the transfer of cell dye (for example the acetoxymethyl [AM]-based Calcein AM), between cancer cells. The SMS assay can be applied to any cell lines forming tumour networks such as tumour microtubes (TM) or tunneling nanotubes (TNT), which enable the transfer of molecules across cells. The SMS assay can be used to assess networking capabilities of any cancer cell lines including HepG2 hepatocellular carcinoma cells, Hs578T cell line for human breast cancer, and U373 cell line for human glioblastoma.
(§2) The SMS assay is illustrated in FIG. 1. For the SMS assay, two sets of cells are stained with the cell dye of choice and a customary cell tracker dye (for example cell tracker blue) using established staining techniques (steps 1 and 2). Each set of cells are then co-incubated with the compound of interest to assess its capabilities to modulate the cells small molecule sharing characteristics (step 3). Then the two sets of cells are combined on a plate, for example at a ratio of 1:1, and cultured in the presence of the compound of interest (Step 4).
(§3) Finally, live cells are evaluated for viability and analyzed by flow cytometry for the uptake of cell dye in the […] cells (Step 5). The comparison of cell tracker uptake against positive and negative control enables the assessment of the compound's ability to modulate the tumour networks including those formed by TM and TNTs
(§4) The SMS assay has been applied to assess the modulation of network sharing capabilities of Protein Kinase C Modulators (PKCm) at various concentrations in the Hs578 cell line for human breast cancer, U373 cell line of human glioblastoma, and HepG2 hepatocellular carcinoma cells. PBS vehicle was used as negative control and the PKCm PHORBOL 12-MYRISTATE 13-ACETATE (PMA) at a concentration of 5 nM was used as the positive control.
(§5) FIG. 2A and FIG. 2B show the percentage of cell tracker cells that were accepting the cell dye transfer from separately stained donor cells according to the SMS assay of Example. The percentage of acceptor cells detected is shown in comparison to vehicle (upper horizontal line) and PMA at 5-10 nM concentration (lower horizontal line). Active PKCm in the SMS assay (FIG. 2A) show a decrease in acceptor cells relative to vehicle at certain concentration. […] The upper limit of the tested concentrations was determined as the maximal non-cytotoxic dose.

[5] = system: patient-derived glioblastoma cells from the Glio10535 model; assay: Example 5: subcutaneous Glio10535 glioblastoma, TPPB with temozolomide, relative tumour volume; format: in vivo, NMRI nude mice
Description: NMRI nude mice were subcutaneously implanted with patient-derived glioblastoma cells from the Glio10535 model (Orthmann et al.) on day 0.
Animals were stratified into the treatment groups on day 6 after tumour implantation to achieve similar average tumour volumes per group. Minimal tumour sizes were 44 mm^3 and maximal tumour sizes were 247 mm^3. Vehicle animals (n=9) were treated with a mix of DMSO, Tween20 and PBS. Each 5 animals were orally dosed with temozolomide chemotherapy at 25 mg/kg (TMZ 25) and at 50 mg/kg (TMZ 50) on consecutive days per week. Each week represents one chemotherapy cycle of 5 treatment days and 2 off-treatment days. TPPB was dosed intraperitoneally in combination with 25 mg/kg oral temozolomide either continuously at 0.2 mg/kg (n=10) or intermittently (n=10) at 0.1, 0.4, and 0.7 mg/kg starting with the last dose of every TMZ 25 cycle and ending the day before the next treatment cycle. Before the start of chemotherapy, TPPB was titrated to its target dose.

[6] = system: Hs578T cells; assay: SMS assay in Hs578T cells; format: cell-based, human; conditions: versus vehicle and PMA (5 nM), FIG. 2A, 2B, 2D, 2E
Excerpt: as §1, §2, §3, §4, §5

[7] = intermittent TPPB 0.7 2× per week i.p. + TMZ 25 mg/kg oral, by 38

Chain of PKCδ (Q05655 whole entry): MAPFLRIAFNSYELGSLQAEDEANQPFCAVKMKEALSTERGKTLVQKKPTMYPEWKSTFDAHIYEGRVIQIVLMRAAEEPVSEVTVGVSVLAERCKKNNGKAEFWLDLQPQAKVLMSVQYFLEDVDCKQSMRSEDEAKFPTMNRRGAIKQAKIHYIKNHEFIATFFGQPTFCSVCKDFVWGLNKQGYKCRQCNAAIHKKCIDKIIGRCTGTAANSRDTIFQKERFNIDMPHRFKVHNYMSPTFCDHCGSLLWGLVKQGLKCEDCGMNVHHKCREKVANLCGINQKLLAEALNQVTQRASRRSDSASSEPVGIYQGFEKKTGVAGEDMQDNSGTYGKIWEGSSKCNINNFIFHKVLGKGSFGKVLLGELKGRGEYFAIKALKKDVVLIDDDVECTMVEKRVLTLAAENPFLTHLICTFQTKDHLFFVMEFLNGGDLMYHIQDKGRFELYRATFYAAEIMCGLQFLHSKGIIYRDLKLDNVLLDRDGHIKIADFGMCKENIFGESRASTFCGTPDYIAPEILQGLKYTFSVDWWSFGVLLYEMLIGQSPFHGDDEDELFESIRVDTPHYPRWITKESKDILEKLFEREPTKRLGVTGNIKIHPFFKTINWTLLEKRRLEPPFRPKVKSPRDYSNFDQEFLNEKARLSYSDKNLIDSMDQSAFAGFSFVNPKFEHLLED

CC(C)[C@H]1C(=O)N[C@H](CO)Cc2cc(NC(=O)/C=C/C=C/c3ccc(C(F)(F)F)cc3)ccc2N1C [TPPB, (2E,4E)-N-[(2S,5S)-1,2,3,4,5,6-Hexahydro-5-(hydroxymethyl)-1-methyl-2-(1-methylethyl)-3-oxo-1,4-benzodiazocin-8-yl]-5-[4-(trifluoromethyl)phenyl]-2,4-pentadienamide]
activation of PKCα [1]: ++ | activation of PKCδ [2]: + | tumour burden ([3]; RTx 7 Gy days 14, 15, 16, day 28): marked tumour regression | tumour connectivity ([3]; RTx, day 28): markedly reduced | tumour burden ([3]; RTx, days 35 and 42): complete remission from the tumour burden | tumour connectivity ([3]; RTx, days 35 and 42): completely disconnected | tumour burden and connectivity versus control ([3]; TPPB continuous i.p. once per day days 0 to 28, 10 to 700 μg/kg, RTx 7 Gy days 14, 15, 16, days 0 to 35): no effect against control | inhibition of cell dye-sharing in the SMS assay [4]: marked inhibition of cell dye-sharing | effect over control ([5]; continuous dosing with TPPB (0.2 mg/kg QD i.p. + TMZ 25)): no effect over control | anti-tumour effect (relative tumour volume) compared with TMZ 25 monotherapy [5, 7]: additive to the effect of temozolomide 25 mg/kg monotherapy | anti-tumour effect (relative tumour volume) compared with continuous TPPB 0.2 QD + TMZ 25 [5, 7]: superior to continuous treatment with TPPB | tumour growth ([5]; intermittent dosing with TPPB (+ TMZ 25)): tumour growth inhibition | cell dye-sharing in the SMS assay (percentage of acceptor cells) [6]: inhibition of cell dye-sharing

— patent publication US20230341377A1, “DISCONNECTION AGENTS” (DC Europa Limited, priority 2020, published 2023)
